2 compounds from ChEMBL document CHEMBL2074107, “Zoledronic acid is synergic with vinblastine to induce apoptosis in a multidrug resistance protein-1 dependent way: an in vitro study” (Cell Biol Int, 2006) can be followed below.

Molecules are shown by their SMILES.

In the data set the target is Multidrug resistance-associated protein 1 (Homo sapiens, UniProt P33527). The experiment in a line: TP_TRANSPORTER: inhibition of apoptosis in hMRP1-expressing HEK293 cells. It counts as functional, cell-based.
Chain of Multidrug resistance-associated protein 1 (P33527 whole entry): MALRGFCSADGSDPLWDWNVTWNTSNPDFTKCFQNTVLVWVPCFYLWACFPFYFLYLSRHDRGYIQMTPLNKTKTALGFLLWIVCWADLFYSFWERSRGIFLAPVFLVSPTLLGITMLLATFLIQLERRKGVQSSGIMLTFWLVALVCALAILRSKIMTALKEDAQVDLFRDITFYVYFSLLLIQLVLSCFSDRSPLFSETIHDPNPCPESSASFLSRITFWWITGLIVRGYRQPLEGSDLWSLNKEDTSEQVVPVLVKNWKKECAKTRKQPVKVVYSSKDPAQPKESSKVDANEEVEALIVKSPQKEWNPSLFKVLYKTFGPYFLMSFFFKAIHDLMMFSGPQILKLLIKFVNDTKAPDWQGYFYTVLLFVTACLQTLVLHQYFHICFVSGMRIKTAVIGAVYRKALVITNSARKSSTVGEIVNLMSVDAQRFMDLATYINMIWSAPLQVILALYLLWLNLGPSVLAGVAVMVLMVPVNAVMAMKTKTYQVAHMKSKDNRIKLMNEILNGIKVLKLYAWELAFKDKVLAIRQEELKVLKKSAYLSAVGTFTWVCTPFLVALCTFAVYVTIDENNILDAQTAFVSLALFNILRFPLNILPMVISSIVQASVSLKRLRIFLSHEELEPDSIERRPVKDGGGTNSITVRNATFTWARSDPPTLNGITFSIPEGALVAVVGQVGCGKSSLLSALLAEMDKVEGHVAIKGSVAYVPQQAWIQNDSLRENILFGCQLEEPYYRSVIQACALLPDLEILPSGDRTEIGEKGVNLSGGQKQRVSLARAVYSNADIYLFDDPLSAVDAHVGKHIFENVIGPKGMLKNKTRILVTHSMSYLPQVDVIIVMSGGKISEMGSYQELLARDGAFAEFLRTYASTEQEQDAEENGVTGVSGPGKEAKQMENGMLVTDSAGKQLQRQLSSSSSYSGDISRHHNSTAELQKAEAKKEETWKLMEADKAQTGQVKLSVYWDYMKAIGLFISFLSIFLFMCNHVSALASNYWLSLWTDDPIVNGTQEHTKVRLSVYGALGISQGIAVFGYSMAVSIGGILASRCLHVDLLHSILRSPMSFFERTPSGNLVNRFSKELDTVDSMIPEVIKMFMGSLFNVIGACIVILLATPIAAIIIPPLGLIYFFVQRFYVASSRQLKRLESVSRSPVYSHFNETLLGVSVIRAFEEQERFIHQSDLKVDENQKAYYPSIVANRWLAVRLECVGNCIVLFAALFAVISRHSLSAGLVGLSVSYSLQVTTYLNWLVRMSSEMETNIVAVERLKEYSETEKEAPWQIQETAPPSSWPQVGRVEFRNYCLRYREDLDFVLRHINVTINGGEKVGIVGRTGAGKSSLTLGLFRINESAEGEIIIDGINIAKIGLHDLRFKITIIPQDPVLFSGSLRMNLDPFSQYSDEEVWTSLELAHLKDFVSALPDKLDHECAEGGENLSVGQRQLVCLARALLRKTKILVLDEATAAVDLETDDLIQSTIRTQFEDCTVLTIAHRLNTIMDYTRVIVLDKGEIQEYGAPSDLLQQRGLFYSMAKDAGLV

On to `CC[C@]1(O)C[C@@H]2CN(CCc3c([nH]c4ccccc34)[C@@](C(=O)OC)(c3cc4c(cc3OC)N(C)[C@H]3[C@@](O)(C(=O)OC)[C@H](OC(C)=O)[C@]5(CC)C=CCN6CC[C@]43[C@@H]65)C2)C1` [VINBLASTINE], for which the Activity result was “substrate []”.

`O.O=P(O)(O)C(O)(Cn1ccnc1)P(=O)(O)O` [ZOLEDRONIC ACID]: the Activity entry is “substrate []”.
